Patent US20220339135A1, “COMPOSITIONS AND METHODS FOR MODULATING AN INFLAMMATORY RESPONSE” (Enzychem Lifesciences Corporation, priority 2019, published 2022)
Entries after “also recorded” stand apart in the source; their conditions may differ.

Assays:
[1] = tested on: PAK in LPL or GPIHBP-1 silenced cells; test: In vitro phagocytosis assay in LPL or GPIHBP-1 silenced cells; assay type: cell-based; conditions: 1 h after infection
Experimental: For immunofluorescence-based measurement of phagocytosis and clearance, BMDMs were grown on glass coverslips in 24-well plates. The cells were infected with PAK (MOI, 50) for different time intervals and then were treated with 10 μg/ml gentamycin for 30 minutes to remove extracellular PAK attached to the cell surface. The infected cells were washed with ice-cold PBS several times, followed by fixing for 10 minutes at room temperature in methanol or 10% paraformaldehyde. The cells were stained with anti-Pseudomonas antibody (Abcam) and then were incubated with goat anti-rabbit IgG secondary antibody conjugated with Alexa Fluor 488. […]
For measurement of phagocytosis by flow cytometry, PAK was heat-killed and stained with 10 μM of SYTO9 (Thermo Scientific™) at room temperature for 30 minutes and then was extensively washed with ice-cold PBS several times. The staining dose of PAK was determined by flow cytometry. […] The fluorescence of extracellular PAK attached to the cell surface was quenched by replacing the medium with PBS containing 0.2% trypan blue.
For CFU counting-based phagocytosis and bacterial killing assay, PAK was cultured at 37° C. overnight with continuous shaking and was resuspended in PBS. […] The diluted aliquots were spread on LB agar plates, and CFU was counted after incubation of the plates overnight at 37° C.

[2] = tested on: chemo-radiation and PAK induced oral mucositis; test: Chemo-radiation and PAK induced oral mucositis; assay type: in vivo, mice; conditions: PLAG 250 mg/kg oral daily, n=19
Experimental: To induce immunocompromised condition in mice of CRIN group and EC-18 group, mice were administered by intraperitoneal injection with 30 mg/kg of 5-FU (Sigma) once a day for 3 days (Sigma) and five days after the experiment initiated, 1Gy of γ-radiation at once. For the EC-18 group, EC-18 (Enzychem Lifesciences, Daejeon, Republic of Korea) was orally given at a dose of 250 mg/kg once a day during the study period. The experimental schedule is described in FIG. 1. On day 6 after the experiment initiated, all the mice of 2 groups (CRIN group, and EC-18 group) were anesthetized with 2% 2, 2, 2,-tribromoethanol by intraperitoneal injection and infected with P. aeruginosa K (PAK) by syringe in the tongue. 1 day after PAK injection, the condition of the tongue and survival rate of mice were monitored and recorded.
P. aeruginosa K was cultured in LB broth or on LB agar plates overnight at 37° C. until they were in log-phase growth. […] The bacterial pellet was suspended to the appropriated number of colony-forming unit (CFU) per milliliter in PBS, as determined by optical density and plating out a serial dilution on broth agar plates. […]
Chemoradiotherapy induced immunocompromised mice were challenged with PAK. […] After the challenge, mice were monitored for 1 day, and the survival rate of mice was recorded.

[3] = tested on: Pseudomonas aeruginosa strain K (PAK) in BALF; test: PAK clearance in AC regimen-induced immunocompromised mice; assay type: in vivo; conditions: PLAG 250 mg/kg oral once daily 5 days, BALF 3 and 6 hours after infection
Experimental: To establish a chemotherapy-induced immunocompromised mice model, the mice were administered a single intravenous injection of 50 mg/kg cyclophosphamide and 2.5 mg/kg doxorubicin (AC regimen). After 5 days from the injection of AC regimen, blood samples were collected from an intra-orbital vein using EDTA capillary tubes, and the number of circulating neutrophils was measured by complete blood cell count (CBC) analysis using Mindray BC-5300 auto-hematology analyzer (Shenzhen Mindray Bio-medical Electronics, China). Pseudomonas aeruginosa strain K (PAK) was grown overnight in LB broth at 37° C. with agitation and then harvested by centrifugation at 13,000×g for 2 minutes. […] The diluted bacteria were administrated to the mice by intranasal injection. Bronchoalveolar lavage fluid (BALF) samples were collected from the PAK-infected mice at different time points after infection in normal mice model and in AC regimen-induced immunocompromised mice model. […] The number of viable bacteria in BALF was determined by counting the number of colonies formed in the plates. […] The BALF samples were harvested at 3 and 6 hours after the infection, and live PAK in BALF after AC regimen and AC regimen/PLAG treatment was determined by counting with colony-forming units (FIG. 6B).

**Q.** What does the source list for `CCCCC/C=C\C/C=C\CCCCCCCC(=O)OC(COC(C)=O)COC(=O)CCCCCCCCCCCCCCC` (racemic) [PLAG, 1-palmitoyl-2-linoleoyl-3-acetylglycerol]?
**A.** PLAG effect on enhanced bacterial phagocytosis in silenced cells [1]: enhances neither phagocytosis nor bacterial killing; also recorded: abrogated; survival rate after 7 days [2]: 84%; bacterial clearance (live PAK CFU in BALF) [3]: significantly accelerates
